Test results taken from patent US20090258947A1 (priority 2006, published 2009).
Read-outs that look alike come from different tables or passages of the source. Marks after values point to notes of the source that are not given here.

How the values were obtained:
[1] = tested on: carrageenan induced paw edema in Wistar rats; settings: for Change in volume (ml) at hour (h): mean ± S.E.M., n = 6
Procedure: Male Wistar rats (180-250 g) were selected for the study comprising 6 animals in each group for the duration of study of 1 day. The vehicle used was (0.5% CMC in 0.1% Tween®80) and the route of administration was peroral (p.o.). […] One hour later 0.1 ml of 1% carrageenan was administered s.c. to the right hind paw of the rat. The degree of inflammation was measured by using digital plethosmometer (Cat. No. 7140, Ugo Basile, Italy) at 0 (initial), 0.5, 1, 2, 3 and 5 hours (h) post carrageenan injection and the values were recorded. For each hour, at least 2-3 values of the dipped paw were obtained and later averaged. The increase in the paw volume (ml) was calculated by subtracting the values obtained at the n^th from the 0 hour and percentage of activity was also calculated. The changes in paw edema (ml) values were expressed as mean±S.E.M. The treatment values were compared with the control values for a particular hour using One-Way Analysis of Variance followed by Dunnett's multiple comparison test. Values of p<0.05 were considered as statistically significant.

[2] = tested on: 1% acetic acid induced writhing in mice; settings: for No. of writhes: 20-minute session, mean ± S.E.M., N = 6
Procedure: (§1) Male Swiss mice (18-22 g) were selected for the study comprising 6 animals in each group. The dose volume was 0.1 ml/10 g body weight of mice and the route of administration was per oral (p.o.). Two tests were performed for the purpose. […] One hour later, a 1% acetic acid solution (10 ml/kg, i.p.) was used to produce writhing in mice. The numbers of writhes {constriction of abdomen, turning of trunk (twist), and extension of hind limbs} due to acetic acid were expressed as painful response. The numbers of writhes per animal were counted during a 20-minute session, beginning 3 minutes after the acetic acid injection. In second test i.e. Tail flick test, the mouse tail was placed on the radiant heat produced by the tail flick apparatus and the individual animal tail flick response was noted (a trail of three was carried out). Animals having a latency to tail withdrawal from the radiant heat source (3-5 s) were selected for the study. […] 1, 2, 4, 5 hours later, the tail flick latency were noted and the change in latency and % maximum protective effect (% MPE) was calculated. A cut off time of 10 seconds was used to prevent any injury to the tail. The changes in tail flick latency and the number of writhes are expressed as mean±S.E.M. The treatment values were compared with the control values for a particular hour using One-Way Analysis of Variance followed by Dunnett's or Bonferroni's multiple comparison test. Values of p<0.05 were considered as statistically significant.

[3] = tested on: tail flick latency to radiant heat in mice; settings: for % MPE at hour (h) / Tail flick latency(s) at hour (h): mean ± S.E.M., N = 6
Procedure: as §1

[4] = cited from earlier work

CS(=O)(=O)Nc1ccc([N+](=O)[O-])cc1Oc1ccccc1 [Nimesulide, 4-nitro-2-phenoxymethane-sulfonanilide]
Percentage of anti-inflammatory activity at hour (h) ([1]; 1 mg/kg p.o., 0.5 h): 16% | Change in volume (ml) at hour (h) ([1]; 1 mg/kg p.o., 0.5 h post carrageenan): 0.148 ± 0.033 mL | Percentage of anti-inflammatory activity at hour (h) ([1]; 1 mg/kg p.o., 1 h): −8% | Change in volume (ml) at hour (h) ([1]; 1 mg/kg p.o., 1 h post carrageenan): 0.186 ± 0.042 mL | Percentage of anti-inflammatory activity at hour (h) ([1]; 1 mg/kg p.o., 2 h): −7% | Change in volume (ml) at hour (h) ([1]; 1 mg/kg p.o., 2 h post carrageenan): 0.312 ± 0.081 mL | Percentage of anti-inflammatory activity at hour (h) ([1]; 1 mg/kg p.o., 3 h): 20% | Change in volume (ml) at hour (h) ([1]; 1 mg/kg p.o., 3 h post carrageenan): 0.398 ± 0.092 mL | Percentage of anti-inflammatory activity at hour (h) ([1]; 1 mg/kg p.o., 5 h): 14% | Change in volume (ml) at hour (h) ([1]; 1 mg/kg p.o., 5 h post carrageenan): 0.549 ± 0.114 mL | Percentage of anti-inflammatory activity at hour (h) ([1]; 3 mg/kg p.o., 0.5 h): 22% | Change in volume (ml) at hour (h) ([1]; 3 mg/kg p.o., 0.5 h post carrageenan): 0.137 ± 0.038 mL | Percentage of anti-inflammatory activity at hour (h) ([1]; 3 mg/kg p.o., 1 h): 27% | Change in volume (ml) at hour (h) ([1]; 3 mg/kg p.o., 1 h post carrageenan): 0.126 ± 0.028 mL | Percentage of anti-inflammatory activity at hour (h) ([1]; 3 mg/kg p.o., 2 h): 33% | Change in volume (ml) at hour (h) ([1]; 3 mg/kg p.o., 2 h post carrageenan): 0.196 ± 0.056 mL | Percentage of anti-inflammatory activity at hour (h) ([1]; 3 mg/kg p.o., 3 h): 66* % | Change in volume (ml) at hour (h) ([1]; 3 mg/kg p.o., 3 h post carrageenan): 0.168 ± 0.11 mL | Percentage of anti-inflammatory activity at hour (h) ([1]; 3 mg/kg p.o., 5 h): 44% | Change in volume (ml) at hour (h) ([1]; 3 mg/kg p.o., 5 h post carrageenan): 0.354 ± 0.104 mL | Percentage of anti-inflammatory activity at hour (h) ([1]; 10 mg/kg p.o., 0.5 h): 33% | Change in volume (ml) at hour (h) ([1]; 10 mg/kg p.o., 0.5 h post carrageenan): 0.118 ± 0.027 mL | Percentage of anti-inflammatory activity at hour (h) ([1]; 10 mg/kg p.o., 1 h): 17% | Change in volume (ml) at hour (h) ([1]; 10 mg/kg p.o., 1 h post carrageenan): 0.143 ± 0.016 mL | Percentage of anti-inflammatory activity at hour (h) ([1]; 10 mg/kg p.o., 2 h): 62% | Change in volume (ml) at hour (h) ([1]; 10 mg/kg p.o., 2 h post carrageenan): 0.110 ± 0.018 mL | Percentage of anti-inflammatory activity at hour (h) ([1]; 10 mg/kg p.o., 3 h): 59* % | Change in volume (ml) at hour (h) ([1]; 10 mg/kg p.o., 3 h post carrageenan): 0.203 ± 0.032 mL | Percentage of anti-inflammatory activity at hour (h) ([1]; 10 mg/kg p.o., 5 h): 58** % | Change in volume (ml) at hour (h) ([1]; 10 mg/kg p.o., 5 h post carrageenan): 0.264 ± 0.035 mL | anti-inflammatory activity over time ([1]; 10 mg/kg, all time intervals): almost consistent anti-inflammatory activity at all time intervals | Percentage of anti-inflammatory activity at hour (h) ([1]; 30 mg/kg p.o., 0.5 h): 28% | Change in volume (ml) at hour (h) ([1]; 30 mg/kg p.o., 0.5 h post carrageenan): 0.126 ± 0.027 mL | Percentage of anti-inflammatory activity at hour (h) ([1]; 30 mg/kg p.o., 1 h): −12% | Change in volume (ml) at hour (h) ([1]; 30 mg/kg p.o., 1 h post carrageenan): 0.193 ± 0.024 mL | Percentage of anti-inflammatory activity at hour (h) ([1]; 30 mg/kg p.o., 2 h): 27% | Change in volume (ml) at hour (h) ([1]; 30 mg/kg p.o., 2 h post carrageenan): 0.214 ± 0.028 mL | Percentage of anti-inflammatory activity at hour (h) ([1]; 30 mg/kg p.o., 3 h): 38% | Change in volume (ml) at hour (h) ([1]; 30 mg/kg p.o., 3 h post carrageenan): 0.307 ± 0.020 mL | Percentage of anti-inflammatory activity at hour (h) ([1]; 30 mg/kg p.o., 5 h): 30% | Change in volume (ml) at hour (h) ([1]; 30 mg/kg p.o., 5 h post carrageenan): 0.443 ± 0.035 mL | degree of anti-inflammatory activity ([1]; 30 mg/kg p.o., from 2-5 hour): around 30% | reduction in paw volume (dose dependence) ([1]; 1, 3 and 10 mg/kg, p.o., from 2 to 5 hour): dose dependant reduction in paw volume | reduction in paw volume compared to control (significance) ([1]; 3 and 10 mg/kg at 3 hours and 10 mg/kg at 5 hours, p<0.05): statistically significant reduction in paw volume | % protection ([2]; 0.03 mg/kg p.o.): 28% | No. of writhes ([2]; 0.03 mg/kg p.o.): 23.17 ± 3.38 | % protection ([2]; 0.1 mg/kg p.o.): 39% | No. of writhes ([2]; 0.1 mg/kg p.o.): 19.67 ± 2.73 | No. of writhes ([2]; 0.3 mg/kg p.o.): 15.50 ± 1.88 | % protection ([2]; 1.0 mg/kg p.o.): 75% | No. of writhes ([2]; 1.0 mg/kg p.o.): 8.00 ± 1.15 | reduction in number of writhes (dose dependence) ([2]; doses 0.03, 0.1, 0.3 and 1 ml/kg, 1% acetic acid): dose dependant reduction in number of writhes | reduction in number of writhing (significance) ([2]; doses 0.1, 0.3 and 1 mg/kg): statistically significant reduction in number of writhing | % MPE at hour (h) ([3]; 0.1 mg/kg p.o., 1 h): 137.0 ± 37.1 % | Tail flick latency(s) at hour (h) ([3]; 0.1 mg/kg p.o., 1 h): 3.00 ± 0.58 s | % MPE at hour (h) ([3]; 0.1 mg/kg p.o., 2 h): 251.0 ± 59.9 % | Tail flick latency(s) at hour (h) ([3]; 0.1 mg/kg p.o., 2 h): 5.50 ± 0.18 s | % MPE at hour (h) ([3]; 0.1 mg/kg p.o., 3 h): 279.0 ± 49.4 % | Tail flick latency(s) at hour (h) ([3]; 0.1 mg/kg p.o., 3 h): 6.17 ± 0.33 s | % MPE at hour (h) ([3]; 0.1 mg/kg p.o., 5 h): 28.0 ± 6.1 % | Tail flick latency(s) at hour (h) ([3]; 0.1 mg/kg p.o., 5 h): 1.42 ± 0.35 s | % MPE at hour (h) ([3]; 0.3 mg/kg p.o., 1 h): 114.0 ± 16.8 % | Tail flick latency(s) at hour (h) ([3]; 0.3 mg/kg p.o., 1 h): 3.17 ± 0.51 s | % MPE at hour (h) ([3]; 0.3 mg/kg p.o., 2 h): 193.0 ± 9.5 % | Tail flick latency(s) at hour (h) ([3]; 0.3 mg/kg p.o., 2 h): 5.33 ± 0.38 s | % MPE at hour (h) ([3]; 0.3 mg/kg p.o., 3 h): 209.0 ± 4.3 % | Tail flick latency(s) at hour (h) ([3]; 0.3 mg/kg p.o., 3 h): 5.75 ± 0.21 s | % MPE at hour (h) ([3]; 0.3 mg/kg p.o., 5 h): 54.0 ± 6.6 % | Tail flick latency(s) at hour (h) ([3]; 0.3 mg/kg p.o., 5 h): 3.08 ± 0.27 s | % MPE at hour (h) ([3]; 1.0 mg/kg p.o., 1 h): 112.0 ± 22.5 % | Tail flick latency(s) at hour (h) ([3]; 1.0 mg/kg p.o., 1 h): 3.17 ± 0.67 s | % MPE at hour (h) ([3]; 1.0 mg/kg p.o., 2 h): 187.0 ± 11.9 % | Tail flick latency(s) at hour (h) ([3]; 1.0 mg/kg p.o., 2 h): 5.25 ± 0.25 s | % MPE at hour (h) ([3]; 1.0 mg/kg p.o., 3 h): 187.0 ± 12.0 % | Tail flick latency(s) at hour (h) ([3]; 1.0 mg/kg p.o., 3 h): 5.25 ± 0.28 s | % MPE at hour (h) ([3]; 1.0 mg/kg p.o., 5 h): 38.0 ± 6.1 % | Tail flick latency(s) at hour (h) ([3]; 1.0 mg/kg p.o., 5 h): 2.17 ± 0.28 s | % MPE at hour (h) ([3]; 3.0 mg/kg p.o., 1 h): 205.0 ± 32.9 % | Tail flick latency(s) at hour (h) ([3]; 3.0 mg/kg p.o., 1 h): 5.17 ± 0.73 s | % MPE at hour (h) ([3]; 3.0 mg/kg p.o., 2 h): 250.0 ± 21.9 % | Tail flick latency(s) at hour (h) ([3]; 3.0 mg/kg p.o., 2 h): 6.33 ± 0.33 s | % MPE at hour (h) ([3]; 3.0 mg/kg p.o., 3 h): 248.0 ± 20.4 % | Tail flick latency(s) at hour (h) ([3]; 3.0 mg/kg p.o., 3 h): 6.25 ± 0.21 s | % MPE at hour (h) ([3]; 3.0 mg/kg p.o., 5 h): 70.0 ± 9.5 % | Tail flick latency(s) at hour (h) ([3]; 3.0 mg/kg p.o., 5 h): 5.33 ± 0.85 s | tail flick latency to radiant heat (dose dependence) ([3]; 0.1, 0.3, 1 and 3 mg/kg, 1, 2, 3 and 5 hours): non dose dependant reduction in tail flick latency | percentage of maximum protection (significance) ([3]; all time intervals and all dose levels): statistically significant at all time intervals and at all dose levels | Time to reach peak concentration (tmax), mean ([4]; after 100 mg): 2.50 h | Time to reach peak concentration (tmax), mean ([4]; after 200 mg dose): 3.17 h
